Assay results as given in paper PMC5340622 (Cancer discovery, 2016).

Legend:
E380Q mutant ER = experiment: ERE-luciferase inhibition, doxycycline-induced E380Q ER in MCF7 cells; type: cell-based; conditions: MCF7, regular medium
S463P mutant ER = experiment: ERE-luciferase inhibition, doxycycline-induced S463P ER in MCF7 cells; type: cell-based; conditions: MCF7, regular medium
MCF7 WT cells = experiment: Proliferation assay; type: cell-based; conditions: Homo sapiens, MCF7, read-out: IC50, growth inhibition
[1] = tested on: MCF7 inducible HA-ER WT tumors; experiment: MCF7 inducible HA-ER WT xenograft; type: in vivo, mice; conditions: fulvestrant 200mg/kg twice weekly s.c.
[2] = tested on: MCF7 inducible HA-ER E380Q tumors; experiment: MCF7 inducible HA-ER E380Q xenograft; type: in vivo, mice; conditions: fulvestrant 200mg/kg twice weekly s.c.
[3] = tested on: MCF7 inducible HA-ER S463P tumors; experiment: MCF7 inducible HA-ER S463P xenograft; type: in vivo, mice; conditions: fulvestrant 200mg/kg twice weekly s.c.
in vivo = conditions: mouse, serum, other: AZD9496 oral (gavage); fulvestrant subcutaneous
[4] = tested on: WT and mutant cell lines (MCF7); experiment: Proliferation of WT and mutant ER MCF7 cell lines with other SERDs; type: cell-based; conditions: WT and all mutant cell lines

SMILES	fold higher IC99 as compared to WT (E380Q mutant ER)	fold higher IC99 as compared to WT (S463P mutant ER)	IC50 (MCF7 WT cells)	tumor growth inhibition [1]	tumor growth inhibition [2]	tumor growth inhibition [3]	AUC (in vivo)	Cmax (in vivo)	inhibition of cell proliferation [4]
C[C@]12CC[C@@H]3c4ccc(O)cc4C[C@@H](CCCCCCCCC[S+]([O-])CCCC(F)(F)C(F)(F)F)[C@H]3[C@@H]1CC[C@@H]2O (some centres unmarked) [fulvestrant]	2 fold	2 fold	0.4 nM	fully inhibited the growth	fully inhibited the growth	fully inhibited the growth	5.29 µM·h	0.65 µM	–
CC/C(=C(/c1ccc(/C=C/C(=O)O)cc1)c1ccc2[nH]ncc2c1)c1ccc(F)cc1Cl [GDC-0810]	–	–	–	–	–	–	–	–	capable of inhibiting cell proliferation by all mutants
C[C@@H]1Cc2c([nH]c3ccccc23)[C@@H](c2c(F)cc(/C=C/C(=O)O)cc2F)N1CC(C)(C)F [AZD9496, (E)-3-(3,5-Difluoro-4-((1R,3R)-2-(2-fluoro-2-methylpropyl)-3-methyl-2,3,4,9-tetra hydro-1H–pyrido[3,4-b]indol-1-yl)phenyl)acrylic Acid]	–	–	0.4 nM	–	–	–	218 µM·h	59 µM	capable of inhibiting cell proliferation by all mutants
C[C@]12C[C@H](c3ccc(OCCCCCS(=O)(=O)CCCC(F)(F)C(F)(F)F)cc3)[C@@H]3c4ccc(O)cc4CC[C@H]3[C@@H]1CC[C@@H]2O [RU58668]	–	–	–	–	–	–	–	–	capable of inhibiting cell proliferation by all mutants
